What all share (test): growth of human tumour cells (NCI), 48 h
In assay [1] the test system is HS 578T breast.
Assay [2] concerns SK-MEL-28 melanoma.
Assay [3] relates to UO-31 renal.
Assay [4] has as its system SK-OV-3 ovarian.
The test system of assay [5] is KM12 colon.
Assay [6] concerns 786-0 renal.
Assay [7] relates to SF-295 CNS.
Assay [8] deals with DU-145 prostate.
Assay [9] deals with OVCAR-5 ovarian.
The test system of assay [10] is HCT-15 colon.
In assay [11] the test system is COLO 205 colon.
The test system of assay [12] is LOX IMVI melanoma.
For assay [13], the system named is A498 renal.
For assay [14], the system named is RPMI-8226 leukemia.
Assay [15] has as its system MDA-N.
Assay [16] concerns UACC-62 melanoma.
The subject of assay [17] is SW-620 colon.
In assay [18] the test system is SN12C renal.
The subject of assay [19] is SNB-19 CNS.
Assay [20] relates to HCC-2998 colon.

Each structure is given as a SMILES string.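 Assay format: 96-well plates, 48-hour exposure. TGI denotes the concentration required for complete inhibition of growth.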

Turning to `CN1N=C(c2ccncc2)OC1c1cccc(F)c1` (configuration not stated), the TGI in assay [1], in [2], in [3], in assay [4], in assay [5] and in [6] was above 100 µM throughout. In addition, the TGI in assay [7], in assay [8], in assay [9], in assay [10], in assay [11] and in assay [12] was above 100 µM throughout. Besides, the TGI in [13], in assay [14], in assay [15], in assay [16], in [17] and in [18] was above 100 µM in each case. The TGI in assay [19] and in assay [20] was above 100 µM throughout.
For `COc1ccc(/C(C)=C2\CCCN(Cc3ccccc3)C2)cc1`, the TGI came out at 29.2 µM in assay [1]; 58.4 µM in [2]; 44.1 µM in assay [3]; 80.3 µM in [4]; 33.3 µM in assay [5]; 33.9 µM in assay [6]. For the same compound, the TGI in assay [7] was 35.1 µM; in [8], above 100 µM; in [9] it was above 100 µM; in assay [10], 46.1 µM; in [11] it was 32.5 µM; in assay [12] it was 35.3 µM. Besides, the TGI is above 100 µM in [13]; 47.4 µM in assay [14]; 47.7 µM in assay [15]; 57.9 µM in assay [16]; 36.1 µM in assay [17]; 50.6 µM in assay [19]. The same compound showed a TGI in assay [20] of 44.7 µM.
Regarding `Cc1cc(NS(=O)(=O)c2ccc(NO)cc2)no1`, the TGI in [1], in assay [2], in assay [3], in assay [4], in assay [5] and in assay [6] was above 100 µM each time. The TGI in assay [8] is above 100 µM; in [9], above 100 µM; in [10], above 100 µM; in assay [11] it was above 100 µM; in assay [12], 39.6 µM; in assay [13] it was above 100 µM. The TGI in [15] is 44.4 µM; in assay [16], above 100 µM; in [17] it was 82.9 µM; in assay [18], 43 µM; in assay [19], above 100 µM; in assay [20] it was above 100 µM.
Turning to `O=C(Nn1c(-c2ccccc2)nc2ccccc2c1=O)c1cccc([N+](=O)[O-])c1`, the TGI in [1], in assay [2], in [3], in [4], in assay [5] and in assay [6] was above 100 µM throughout. For the same compound, the TGI in [8], in assay [9], in [10], in assay [11], in [12] and in [13] was above 100 µM throughout. Besides, the TGI in assay [14], in [15], in assay [16], in [17], in [18] and in assay [19] was above 100 µM in each case. Besides, the TGI in [20] was above 100 µM.
Consider `COc1ccc2nc3cccc([N+](=O)[O-])c3c(NCCC(=O)O)c2c1`, for which the TGI in [1], in assay [2], in assay [4], in [5], in [6] and in assay [7] was above 10 µM throughout. Moreover, the TGI in assay [8], in [9], in [10], in assay [11], in assay [12] and in assay [13] was above 10 µM in each case. Moreover, the TGI in assay [14], in assay [15], in [16], in assay [17], in [18] and in assay [19] was above 10 µM each time. Moreover, the TGI in assay [20] was above 10 µM.
Consider `CC1(C)CC(=O)c2c(-c3ccc(Cl)cc3)c(C#N)c(=S)n(C3OC(CO)C(O)C(O)C3O)c2C1` (configuration not stated), for which the TGI in assay [1] was above 100 µM; in [2], above 100 µM; in assay [3], 98.8 µM; in [5], above 100 µM; in assay [6], above 100 µM; in assay [7], above 100 µM. For the same compound, the TGI in [8] is above 100 µM; in assay [9], above 100 µM; in assay [10], above 100 µM; in [11], 92.8 µM; in assay [12], 49.4 µM; in [13] it was above 100 µM. For the same compound, the TGI was above 100 µM in assay [14]; 58.3 µM in [15]; 41.6 µM in assay [16]; above 100 µM in assay [17]; above 100 µM in assay [18]; above 100 µM in [19]. In addition, the TGI in assay [20] was above 100 µM.
With `CCOC(=O)c1ccc(N=C2Sc3nc4ccccc4n3C2=Nc2ccc(C(=O)OCC)cc2)cc1`, the TGI in assay [1] was 75.5 µM; in assay [2], above 100 µM; in [4] it was above 100 µM; in [5] it was above 100 µM; in assay [6] it was 24.5 µM; in [7] it was 37.3 µM. In addition, the TGI is above 100 µM in [8]; above 100 µM in assay [9]; above 100 µM in assay [10]; above 100 µM in assay [11]; 81.8 µM in assay [12]; 81.4 µM in [13]. For the same compound, the TGI in assay [15] was 65 µM; in [16], 54.4 µM; in assay [17], above 100 µM; in [18], above 100 µM; in assay [19], 25.2 µM; in assay [20], above 100 µM.

For the origin of these results see PubChem BioAssay (NCI).
